Experimental data: US12714696B2, “Low dose fluralaner compositions for protection against parasitic invertebrate pest” (VIRBAC, priority 2019, dated 2026)
Values joined by “and” are separate entries in the source; they are usually repeats but may differ in a detail not shown here. Equal entries are not always repeated. Where two headings read alike, the source gives them in different places.

Assay: Pharmacokinetics after repeated oral administration of 250 μg/kg and 35 μg/kg of fluralaner in dogs after feeding
Type: in vivo, beagle dogs
Conditions: for concentration at 24 h / concentration at 48 h / concentration at 72 h / concentration at 96 h / concentration at 120 h / concentration at 144 h: beagle, dog, plasma, po
Protocol: The first objective is to obtain the pharmacokinetic parameters after repeated oral administration of […] and 35 μg/kg of fluralaner in dogs after feeding.
The second objective is to investigate the pharmacodynamics between the fluralaner plasmatic dose and the effectiveness against ticks. • IVP: Investigational Veterinary Product, is pure Fluralaner+DMSO (250 μg/kg on Days 0 to 3 (0.25 mL/kg), then 35 μg/kg on Days 4 to 9 (0.35 mL/kg), then 600 μg/kg on Day 11) • Control product is DMSO (0.25 mL/kg on Days 0 to 3, then 0.35 mL/kg on Days 4 to 9)
On Days 0, 1, 2 and 3, all dogs assigned to group 2 received the Investigational Veterinary Product. On Days 0 to 3 all dogs in group 1 received the control product at a volume equal to the dogs in group 2. Dogs assigned to group 1 received the control product and served as Placebo controls. The quantity of Investigational Veterinary Product and control product administered was calculated according to the dog's individual body weight measured on Day −1. […]
On days of administration of pre-Investigational Veterinary Product or Control Product, dogs were fed (the same dog food) approximately half of their normal daily ration 30 minutes to 35 minutes prior to administration. Food consumed by the time of administration was calculated and recorded. The remainder of their normal daily ration was fed immediately after administration.
The PK parameters of fluralaner were calculated using a non-compartmental approach.
The following rules were applied for the calculation of the PK parameters: • All the plasma concentrations, validated by the bioanalytical laboratory, were used for the PK analysis. • The actual blood sampling times were used throughout. • Concentrations below the Limit of Quantification (LOQ) value were considered as zero from time zero (pre-dose) up to the time at which the first quantifiable concentration above the LOQ value was observed. Concentrations below the LOQ value between two quantifiable concentrations were considered as missing. Trailing concentrations below the LOQ value were not used in calculations.
Cmax the observed maximum concentration in plasma measured after dosing.
λz the terminal rate constant (λz) was estimated by log-linear regression analysis on data points visually assessed, to be on the terminal log-linear phase. For the slope of the terminal elimination phase to be accepted as reliable, the following criteria were used: • the terminal data points were apparently randomly distributed about a single straight line (on visual inspection), • a minimum of three data points, including the last measured data point and excluding Cmax, were available for the regression.
t1/2 the terminal plasma half-life (t1/2) was calculated according to the following equation: […]

Cc1cc(C2=NOC(c3cc(Cl)cc(Cl)c3)(C(F)(F)F)C2)ccc1C(=O)NCC(=O)NCC(F)(F)F (stereo not drawn) [fluralaner, Fluralaner]
fluralaner concentration levels, individual animal (24 h, oral 250 μg/kg Days 0-3, 35 μg/kg Days 4-9, 600 μg/kg Day 11, dogs): 142 ng/mL and 158 ng/mL and 129 ng/mL | fluralaner concentration levels, individual animal (48 h, oral 250 μg/kg Days 0-3, 35 μg/kg Days 4-9, 600 μg/kg Day 11, dogs): 269 ng/mL and 283 ng/mL and 253 ng/mL | fluralaner concentration levels, individual animal (72 h, oral 250 μg/kg Days 0-3, 35 μg/kg Days 4-9, 600 μg/kg Day 11, dogs): 381 ng/mL and 378 ng/mL and 373 ng/mL | fluralaner concentration levels, individual animal (96 h, oral 250 μg/kg Days 0-3, 35 μg/kg Days 4-9, 600 μg/kg Day 11, dogs): 496 ng/mL and 572 ng/mL and 515 ng/mL | fluralaner concentration levels, individual animal (120 h, oral 250 μg/kg Days 0-3, 35 μg/kg Days 4-9, 600 μg/kg Day 11, dogs): 465 ng/mL and 535 ng/mL and 554 ng/mL | fluralaner concentration levels, individual animal (144 h, oral 250 μg/kg Days 0-3, 35 μg/kg Days 4-9, 600 μg/kg Day 11, dogs): 510 ng/mL and 447 ng/mL and 454 ng/mL | fluralaner concentration levels, individual animal (168 h, oral 250 μg/kg Days 0-3, 35 μg/kg Days 4-9, 600 μg/kg Day 11, dogs): 521 ng/mL and 536 ng/mL and 520 ng/mL | fluralaner concentration levels, individual animal (192 h, oral 250 μg/kg Days 0-3, 35 μg/kg Days 4-9, 600 μg/kg Day 11, dogs): 456 ng/mL and 558 ng/mL and 455 ng/mL | fluralaner concentration levels, individual animal (216 h, oral 250 μg/kg Days 0-3, 35 μg/kg Days 4-9, 600 μg/kg Day 11, dogs): 468 ng/mL and 551 ng/mL and 472 ng/mL and 493 ng/mL | fluralaner concentration levels, individual animal (240 h, oral 250 μg/kg Days 0-3, 35 μg/kg Days 4-9, 600 μg/kg Day 11, dogs): 423 ng/mL and 368 ng/mL and 724 ng/mL and 422 ng/mL | fluralaner concentration levels, individual animal (384 h, oral 250 μg/kg Days 0-3, 35 μg/kg Days 4-9, 600 μg/kg Day 11, dogs): 893 ng/mL and 523 ng/mL and 715 ng/mL and 1000 ng/mL | fluralaner concentration levels, individual animal (528 h, oral 250 μg/kg Days 0-3, 35 μg/kg Days 4-9, 600 μg/kg Day 11, dogs): 267 ng/mL and 373 ng/mL and 235 ng/mL and 517 ng/mL and 283 ng/mL | fluralaner concentration levels, individual animal (624 h, oral 250 μg/kg Days 0-3, 35 μg/kg Days 4-9, 600 μg/kg Day 11, dogs): 223 ng/mL and 280 ng/mL and 182 ng/mL and 403 ng/mL and 227 ng/mL | fluralaner concentration levels, individual animal (720 h, oral 250 μg/kg Days 0-3, 35 μg/kg Days 4-9, 600 μg/kg Day 11, dogs): 285 ng/mL and 275 ng/mL and 248 ng/mL and 187 ng/mL | steady state concentrations (after the fourth dose application 250 μg/kg per day (on Day 3)): not been reached | concentration at 24 h (24 h, oral 250 μg/kg Days 0-3, 35 μg/kg Days 4-9, 600 μg/kg Day 11, dogs, read-out: fluralaner concentration levels, individual animal): 160 ng/mL | concentration at 24 h (24 h, oral 250/35/600 μg/kg regimen, dogs, n=6, read-out: fluralaner concentration levels, GeoMean): 145 ng/mL | concentration at 24 h (24 h, oral 250/35/600 μg/kg regimen, dogs, n=6, read-out: fluralaner concentration levels, Maximum): 160 ng/mL | concentration at 24 h (24 h, oral 250/35/600 μg/kg regimen, dogs, n=6, read-out: fluralaner concentration levels, Mean): 146 ng/mL | concentration at 24 h (24 h, oral 250/35/600 μg/kg regimen, dogs, n=6, read-out: fluralaner concentration levels, Median): 146 ng/mL | concentration at 24 h (24 h, oral 250/35/600 μg/kg regimen, dogs, n=6, read-out: fluralaner concentration levels, Minimum): 129 ng/mL | concentration at 48 h (48 h, oral 250 μg/kg Days 0-3, 35 μg/kg Days 4-9, 600 μg/kg Day 11, dogs, read-out: fluralaner concentration levels, individual animal): 257 ng/mL | concentration at 48 h (48 h, oral 250/35/600 μg/kg regimen, dogs, n=6, read-out: fluralaner concentration levels, GeoMean): 269 ng/mL | concentration at 48 h (48 h, oral 250/35/600 μg/kg regimen, dogs, n=6, read-out: fluralaner concentration levels, Maximum): 312 ng/mL | concentration at 48 h (48 h, oral 250/35/600 μg/kg regimen, dogs, n=6, read-out: fluralaner concentration levels, Mean): 270 ng/mL | concentration at 48 h (48 h, oral 250/35/600 μg/kg regimen, dogs, n=6, read-out: fluralaner concentration levels, Median): 263 ng/mL | concentration at 48 h (48 h, oral 250/35/600 μg/kg regimen, dogs, n=6, read-out: fluralaner concentration levels, Minimum): 245 ng/mL | concentration at 72 h (72 h, oral 250 μg/kg Days 0-3, 35 μg/kg Days 4-9, 600 μg/kg Day 11, dogs, read-out: fluralaner concentration levels, individual animal): 366 ng/mL | concentration at 72 h (72 h, oral 250/35/600 μg/kg regimen, dogs, n=6, read-out: fluralaner concentration levels, GeoMean): 386 ng/mL | concentration at 72 h (72 h, oral 250/35/600 μg/kg regimen, dogs, n=6, read-out: fluralaner concentration levels, Maximum): 469 ng/mL | concentration at 72 h (72 h, oral 250/35/600 μg/kg regimen, dogs, n=6, read-out: fluralaner concentration levels, Mean): 388 ng/mL | concentration at 72 h (72 h, oral 250/35/600 μg/kg regimen, dogs, n=6, read-out: fluralaner concentration levels, Median): 376 ng/mL | concentration at 72 h (72 h, oral 250/35/600 μg/kg regimen, dogs, n=6, read-out: fluralaner concentration levels, Minimum): 361 ng/mL | concentration at 96 h (96 h, oral 250 μg/kg Days 0-3, 35 μg/kg Days 4-9, 600 μg/kg Day 11, dogs, read-out: fluralaner concentration levels, individual animal): 497 ng/mL | concentration at 96 h (96 h, oral 250/35/600 μg/kg regimen, dogs, n=6, read-out: fluralaner concentration levels, GeoMean): 524 ng/mL | concentration at 96 h (96 h, oral 250/35/600 μg/kg regimen, dogs, n=6, read-out: fluralaner concentration levels, Maximum): 602 ng/mL | concentration at 96 h (96 h, oral 250/35/600 μg/kg regimen, dogs, n=6, read-out: fluralaner concentration levels, Mean): 526 ng/mL | concentration at 96 h (96 h, oral 250/35/600 μg/kg regimen, dogs, n=6, read-out: fluralaner concentration levels, Median): 506 ng/mL | concentration at 96 h (96 h, oral 250/35/600 μg/kg regimen, dogs, n=6, read-out: fluralaner concentration levels, Minimum): 471 ng/mL | concentration at 120 h (120 h, oral 250 μg/kg Days 0-3, 35 μg/kg Days 4-9, 600 μg/kg Day 11, dogs, read-out: fluralaner concentration levels, individual animal): 495 ng/mL | concentration at 120 h (120 h, oral 250/35/600 μg/kg regimen, dogs, n=6, read-out: fluralaner concentration levels, GeoMean): 508 ng/mL | concentration at 120 h (120 h, oral 250/35/600 μg/kg regimen, dogs, n=6, read-out: fluralaner concentration levels, Maximum): 554 ng/mL | concentration at 120 h (120 h, oral 250/35/600 μg/kg regimen, dogs, n=6, read-out: fluralaner concentration levels, Mean): 509 ng/mL | concentration at 120 h (120 h, oral 250/35/600 μg/kg regimen, dogs, n=6, read-out: fluralaner concentration levels, Median): 515 ng/mL | concentration at 120 h (120 h, oral 250/35/600 μg/kg regimen, dogs, n=6, read-out: fluralaner concentration levels, Minimum): 465 ng/mL | concentration at 144 h (144 h, oral 250 μg/kg Days 0-3, 35 μg/kg Days 4-9, 600 μg/kg Day 11, dogs, read-out: fluralaner concentration levels, individual animal): 497 ng/mL | concentration at 144 h (144 h, oral 250/35/600 μg/kg regimen, dogs, n=6, read-out: fluralaner concentration levels, GeoMean): 491 ng/mL | concentration at 144 h (144 h, oral 250/35/600 μg/kg regimen, dogs, n=6, read-out: fluralaner concentration levels, Maximum): 550 ng/mL | concentration at 144 h (144 h, oral 250/35/600 μg/kg regimen, dogs, n=6, read-out: fluralaner concentration levels, Mean): 492 ng/mL | concentration at 144 h (144 h, oral 250/35/600 μg/kg regimen, dogs, n=6, read-out: fluralaner concentration levels, Median): 496 ng/mL | concentration at 144 h (144 h, oral 250/35/600 μg/kg regimen, dogs, n=6, read-out: fluralaner concentration levels, Minimum): 447 ng/mL
